Among the data in PubChem BioAssay AID1259407 (Chemical Carcinogenesis Research Information System (CCRIS), 2018) are mutagenic call values, retold here.

Molecules are shown by their SMILES. Activity calls are given as the source filed them. No rule for the calls is given here.

This data set has as its system CCRIS mutagenicity, Ames/micronucleus/aberration tests. Description: CCRIS mutagenicity studies.
[1] abbreviates: Test System: AMES SALMONELLA TYPHIMURIUM, Strain/Indicator: TA98, Metabolic Activation: NONE, Method: STANDARD PLATE.
Where [2] appears, read: Test System: AMES SALMONELLA TYPHIMURIUM, Strain/Indicator: TA100, Metabolic Activation: NONE, Method: STANDARD PLATE.
[3] abbreviates: Test System: AMES SALMONELLA TYPHIMURIUM, Strain/Indicator: TA100, Metabolic Activation: RAT, LIVER, S-9, AROCLOR 1254, Method: STANDARD PLATE.
The mark [4] stands for this setting: Test System: E. COLI, Strain/Indicator: WP2 UVRA (PKM101), Metabolic Activation: NONE, Method: STANDARD PLATE.

`CC(F)(F)F`: the mutagenic call reads like this: (Test System: AMES SALMONELLA TYPHIMURIUM, Strain/Indicator: TA97, Metabolic Activation: NONE, Method: STANDARD PLATE) “inactive; negative”; (Test System: AMES SALMONELLA TYPHIMURIUM, Strain/Indicator: TA97, Metabolic Activation: RAT, LIVER, S-9, AROCLOR 1254, Method: STANDARD PLATE) “inactive; negative”; under setting [1], “inactive; negative”; (Test System: AMES SALMONELLA TYPHIMURIUM, Strain/Indicator: TA98, Metabolic Activation: RAT, LIVER, S-9, AROCLOR 1254, Method: STANDARD PLATE) “inactive; negative”; under setting [2], “inactive; negative”; under setting [3], “inactive; negative”. Moreover, the mutagenic call was “inactive; negative” (Test System: AMES SALMONELLA TYPHIMURIUM, Strain/Indicator: TA1535, Metabolic Activation: NONE, Method: STANDARD PLATE); “inactive; negative” (Test System: AMES SALMONELLA TYPHIMURIUM, Strain/Indicator: TA1535, Metabolic Activation: RAT, LIVER, S-9, AROCLOR 1254, Method: STANDARD PLATE); “inactive; negative” (Test System: AMES SALMONELLA TYPHIMURIUM, Strain/Indicator: TA1538, Metabolic Activation: NONE, Method: STANDARD PLATE); “inactive; negative” (Test System: AMES SALMONELLA TYPHIMURIUM, Strain/Indicator: TA1538, Metabolic Activation: RAT, LIVER, S-9, AROCLOR 1254, Method: STANDARD PLATE); “inactive; negative” under setting [4]; “inactive; negative” (Test System: E. COLI, Strain/Indicator: WP2 UVRA (PKM101), Metabolic Activation: RAT, LIVER, S-9, AROCLOR 1254, Method: STANDARD PLATE).
On to `COC1=C(N)C(=O)c2nc(-c3nc(C(=O)O)c(C)c(-c4ccc(OC)c(OC)c4O)c3N)ccc2C1=O`, for which the mutagenic call (Test System: AMES SALMONELLA TYPHIMURIUM, Strain/Indicator: TA102, Metabolic Activation: NONE, Method: STANDARD PLATE) is “active; positive”; the mutagenic call (Test System: AMES SALMONELLA TYPHIMURIUM, Strain/Indicator: TA2638, Metabolic Activation: NONE, Method: STANDARD PLATE) is “active; positive”; the mutagenic call (Test System: AMES SALMONELLA TYPHIMURIUM, Strain/Indicator: TA2638A, Metabolic Activation: NONE, Method: STANDARD PLATE) was “active; positive”; the mutagenic call (Test System: E. COLI, Strain/Indicator: WP2 (PKM101), Metabolic Activation: NONE, Method: STANDARD PLATE) is “active; positive”; the mutagenic call under setting [4] is “active; positive”; the mutagenic call (Test System: UDS HUMAN FIBROBLASTS, Strain/Indicator: THY INCORP (NON-S-PHASE), Metabolic Activation: NONE, Method: AUTORADIOGRAPHY) is “active; positive”.
Regarding `COc1cc(-c2nc(-c3ccccc3)c(-c3ccccc3)[nH]2)ccc1O`, the mutagenic call was “inactive; negative” under setting [1]; “inactive; negative” (Test System: AMES SALMONELLA TYPHIMURIUM, Strain/Indicator: TA98, Metabolic Activation: RAT LIVER S-9, 3-METHYLCHOLANTHRENE, SODIUM PHENOBARBITAL, Method: STANDARD PLATE); “active; positive” under setting [2].
For `Cc1ccc(N)c(C)c1`, the mutagenic call runs as follows: (End Point: IN VITRO CHROMOSOMAL ABERRATIONS, Test System: CHL CELLS, Metabolic Activation: RAT, LIVER, S-9, SODIUM PHENOBARBITAL AND 5,6-BENZOFLAVONE) “active; positive (structural and ploidy changes)”; (Test System: AMES SALMONELLA TYPHIMURIUM, Strain/Indicator: TA97, Metabolic Activation: HAMSTER, LIVER, S-9, AROCLOR 1254 (10%), Method: PREINCUBATION) “active; positive”; (Test System: AMES SALMONELLA TYPHIMURIUM, Strain/Indicator: TA97, Metabolic Activation: NONE, Method: PREINCUBATION) “inactive; negative”; (Test System: AMES SALMONELLA TYPHIMURIUM, Strain/Indicator: TA97, Metabolic Activation: RAT, LIVER, S-9, AROCLOR 1254 (10%), Method: PREINCUBATION) “inactive; negative”; (Test System: AMES SALMONELLA TYPHIMURIUM, Strain/Indicator: TA98, Metabolic Activation: HAMSTER, LIVER, S-9, AROCLOR 1254 (10%), Method: PREINCUBATION) “active; positive”; (Test System: AMES SALMONELLA TYPHIMURIUM, Strain/Indicator: TA98, Metabolic Activation: NONE, Method: PREINCUBATION) “inactive; negative”. Moreover, the mutagenic call is “active; positive” (Test System: AMES SALMONELLA TYPHIMURIUM, Strain/Indicator: TA98, Metabolic Activation: RAT, LIVER, S-9, AROCLOR 1254 (10%), Method: PREINCUBATION); “inactive; negative” (Test System: AMES SALMONELLA TYPHIMURIUM, Strain/Indicator: TA98, Metabolic Activation: S-9, Method: PREINCUBATION); “active; positive” (Test System: AMES SALMONELLA TYPHIMURIUM, Strain/Indicator: TA100, Metabolic Activation: HAMSTER, LIVER, S-9, AROCLOR 1254 (10%), Method: PREINCUBATION); “active; positive” (Test System: AMES SALMONELLA TYPHIMURIUM, Strain/Indicator: TA100, Metabolic Activation: MOUSE, LIVER, S-9, AROCLOR 1254, Method: STANDARD PLATE); “inactive; negative” (Test System: AMES SALMONELLA TYPHIMURIUM, Strain/Indicator: TA100, Metabolic Activation: NONE, Method: PREINCUBATION); “active; positive” (Test System: AMES SALMONELLA TYPHIMURIUM, Strain/Indicator: TA100, Metabolic Activation: RAT, LIVER, S-9, AROCLOR 1254 (10%), Method: PREINCUBATION). The mutagenic call is, setting by setting: under setting [3], “active; positive”; (Test System: AMES SALMONELLA TYPHIMURIUM, Strain/Indicator: TA100, Metabolic Activation: S-9, Method: PREINCUBATION) “active; positive”; (Test System: AMES SALMONELLA TYPHIMURIUM, Strain/Indicator: TA1535, Metabolic Activation: HAMSTER, LIVER, S-9, AROCLOR 1254 (10%), Method: PREINCUBATION) “inactive; negative”; (Test System: AMES SALMONELLA TYPHIMURIUM, Strain/Indicator: TA1535, Metabolic Activation: NONE, Method: PREINCUBATION) “inactive; negative”; (Test System: AMES SALMONELLA TYPHIMURIUM, Strain/Indicator: TA1535, Metabolic Activation: RAT, LIVER, S-9, AROCLOR 1254 (10%), Method: PREINCUBATION) “inactive; negative”; (Test System: AMES SALMONELLA TYPHIMURIUM, Strain/Indicator: TA1537, Metabolic Activation: HAMSTER, LIVER, S-9, AROCLOR 1254 (10%), Method: PREINCUBATION) “inactive; negative”. Also, the mutagenic call is, setting by setting: (Test System: AMES SALMONELLA TYPHIMURIUM, Strain/Indicator: TA1537, Metabolic Activation: RAT, LIVER, S-9, AROCLOR 1254 (10%), Method: PREINCUBATION) “inactive; negative”; (Test System: UDS RODENT HEPATOCYTES, Strain/Indicator: THY INCORP (NON-S-PHASE), Metabolic Activation: NONE, Method: AUTORADIOGRAPHY) “active; positive”.
